Results from article PMC6095626, “Screening of the Pathogen Box for inhibitors with dual efficacy against Giardia lamblia and Cryptosporidium parvum” (PLoS Neglected Tropical Diseases, 2018).

Legend:
[1] = system: G. lamblia trophozoites (luciferase expressing, WBC6); test: microbe, parasite or virus in culture; type: cell-based, Giardia lamblia; conditions: initial Pathogen Box screen, single concentration 16 µM, inhibition compared to DMSO wells
In short: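 Luciferase-expressing WBC6 trophozoites plated at 250,000 cells/mL, compounds added 1:1, incubated anaerobically (GasPak bags) at 37 °C for 24 h; viability read by bioluminescence, with duplicate plates counted on a MOXI Z cell counter. Metronidazole control serially diluted 1:2 from 40 μM.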

[2] = system: C. parvum (UGA1 Nluc expressing strain in HCT-8 cells); test: microbe, parasite or virus in culture; type: cell-based, Cryptosporidium parvum; conditions: initial Pathogen Box screen, single concentration 10 µM, inhibition compared to DMSO wells
In short: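 HCT-8 monolayers grown 48 h to 90–100% confluence, treated with compound at 10 μM or serial dilutions, then infected with bleach-treated UGA1 Nluc C. parvum oocysts.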

| Structure (SMILES) | Giardia (16 uM) Mean % inhibition [1] | Crypto (10 uM) Mean % inhibition [2] |
| --- | --- | --- |
| COc1ccc(C2=NN(C3CCCCCC3)C(=O)[C@@H]3CC=CC[C@H]23)cc1OCCCCOc1ccc(-c2nn[nH]n2)cc1 [MMV690027] | 24% | 44% |
| COc1cncc(-c2cncc(N3CCN(c4ccncc4)CC3)n2)c1 [MMV085071] | 19% | 47% |
| Cc1ccc2cc(C3NC(=O)c4ccccc4N3)c(Cl)nc2c1 (stereo not shown) [MMV019807] | 24% | 79% |
| O=C(Nc1ccnc(-c2cccnc2)n1)c1cc(C(F)(F)F)cc(C(F)(F)F)c1 [MMV019838] | 16% | 71% |
| O=C(OCc1ccccc1)N1CCC(c2cc(-c3ccncc3)c(-c3ccc(F)cc3)[nH]2)CC1 [MMV688509] | 41% | X* (Mean or standard deviation are negative but not significantly different from the control to be a growth promoter) |
| CC1(C)Cc2c(c(N3CCOCC3)nc3snc(Br)c23)CO1 [MMV687794] | 17% | X* (Mean or standard deviation are negative but not significantly different from the control to be a growth promoter) |
| CC(=O)NC[C@H]1CN(c2ccc(N3CCSCC3)c(F)c2)C(=O)O1 [MMV688756] | 22% | 39% |
| Cc1nn(Cc2ccccc2)c(Cl)c1C(=O)NC1CCCCCC1 [MMV063404] | 55% | 75% |
| Cc1cccnc1NC(=O)c1cccc(OCc2c(C)noc2C)c1 [MMV688793] | 45% | 63% |
| CNC(=O)C1Cc2ccccc2N1C(=O)Cc1ccc(F)cc1 (stereo not shown) [MMV188296] | 33% | 54% |
| CNC(=O)CNc1nc(-c2ccccn2)nc2scc(-c3ccccc3)c12 [MMV1029203] | 4% | 21% |
| CCS(=O)(=O)N(Cc1ccco1)Cc1cc2ccc(C)cc2[nH]c1=O [MMV676398] | 22% | X* (Mean or standard deviation are negative but not significantly different from the control to be a growth promoter) |
| O=C(C1CCN(c2nnnn2-c2ccccc2)CC1)N1CCc2ccccc2C1 [MMV009135] | X* (Mean or standard deviation are negative but not significantly different from the control to be a growth promoter) | 56% |
| CCc1ccc([C@@H]2C[C@H](C(F)(F)F)n3ncc(C(=O)NCc4ccc(OC)cc4)c3N2)cc1 [MMV687180] | 23% | X* (Mean or standard deviation are negative but not significantly different from the control to be a growth promoter) |
| O=C(c1n[nH]c2c1CCCC2)N1CCN(Cc2ccc3c(c2)OCO3)CC1 [MMV676389] | 66% | X* (Mean or standard deviation are negative but not significantly different from the control to be a growth promoter) |
| O=C1Nc2ccc(Br)cc2C12NCCc1c2[nH]c2ccccc12 (stereo not shown) [MMV006239] | X* (Mean or standard deviation are negative but not significantly different from the control to be a growth promoter) | 53% |
| Cc1nc(-c2cccc(NCc3ccccc3)c2)[nH]c1C [MMV023227] | 58% | 25% |
| Cc1cccc(Cn2ccc(NC(=O)c3ccc4c(c3)OCO4)n2)c1 [MMV676386] | 57% | 53% |
| COc1cc(OC)cc(C(=O)NCC2Cc3cc(Cl)cc(-c4ccncc4)c3O2)c1 (stereo not shown) [MMV007471] | 23% | 50% |
| c1ccc(Oc2ccc(-c3cc(CN4CCOCC4)[nH]n3)cc2)cc1 [MMV676161] | 33% | X* (Mean or standard deviation are negative but not significantly different from the control to be a growth promoter) |
